# “And” between values parts separate entries of the source, which are not always exact repeats. Equal values may be shown once. Numbered stars: 1 amine (or outer) side, 2 acyl side, 3 side chain; on linkers, the order of the positions; unused ones are H or OH. Square brackets hold non-standard residues; d marks the D form. Peptide text beside a SMILES is read from it. * marks the point of attachment. C20 diacid = O=C(O)CCCCCCCCCCCCCCCCCCC(=O)*; C18 diacid = O=C(O)CCCCCCCCCCCCCCCCC(=O)*; γGlu = O=C(O)[C@H](CCC(=O)[*:2])N[*:1]; C14 diacid = O=C(O)CCCCCCCCCCCCC(=O)*; NMeL = CN[C@@H](CC(C)C)C(=O)O; Nle = CCCC[C@H](N)C(=O)O; AEEA = NCCOCCOCC(=O)O
# Columns and labels:
# Assay in all cases: IP3 assay (inositol trisphosphate, 3H-myoinositol) in transiently transfected COS-7 cells
# Type in all cases: cell-based
# hNK1R = biological target: T1, hNK1R (Homo sapiens, UniProt P25103); details: COS-7 cells; for hNK1R, IP3 Efficacy: figure legends: percent of 10^-6 M NKA; for EC50: 0.2% ovalbumin buffer
# T1 construct: host or cells: COS-7
# T1 sequence (P25103 whole entry): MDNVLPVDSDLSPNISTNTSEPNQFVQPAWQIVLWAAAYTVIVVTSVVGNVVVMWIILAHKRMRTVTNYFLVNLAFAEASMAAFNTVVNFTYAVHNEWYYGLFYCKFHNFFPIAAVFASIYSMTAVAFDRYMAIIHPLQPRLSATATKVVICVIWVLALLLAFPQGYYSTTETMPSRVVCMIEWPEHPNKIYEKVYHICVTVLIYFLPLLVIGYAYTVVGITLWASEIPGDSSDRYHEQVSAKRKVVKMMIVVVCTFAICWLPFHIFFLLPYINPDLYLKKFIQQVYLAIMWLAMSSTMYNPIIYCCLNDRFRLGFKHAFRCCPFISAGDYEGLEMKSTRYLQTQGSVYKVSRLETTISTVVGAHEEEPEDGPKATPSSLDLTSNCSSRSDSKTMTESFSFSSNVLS
# Protocol: (§1) Agonist-induced G-protein coupled receptor (GPCR) activation was measured by an Inositol-1,4,5-Trisphosphate [^3H] Radioreceptor Assay (IPs Assay). Assays were carried out using COS-7 cells transiently transfected by calcium phosphate transfection with a vector pcDNA3.1(+) encoding one of the indicated receptors (Genscript). Briefly, DNA mixed with CaCl2 (2 M) and TE-buffer (10 mM Tris-HCl, 1 mM EDTA, pH 7.5) was dropwise added to 2×HBS (50 mM HEPES, 280 mM NaCl, 1.5 mM NaH2PO4, pH 7.2) and incubated for 45 min at room temperature (22±2° C.). The mixture and a final concentration of 100 μM Chloroquine were added to the cells and left to incubate for 5 hours at 37° C. under standard cell culture conditions (10% CO2) before changing medium to fresh medium containing 5 μl/mL Myo-[2-^3H(N)]-inositol (labelling medium).
# (§2) The IP3 assay takes advantage of the tachykinin receptors' ability to induce production of the inositol trisphosphate (IP3) second messenger upon agonist (ligand) binding on receptor expressing cells following an initial ^3H-inositol labelling period. In effect this means that production of the second messenger IP3 as a measure of receptor activity can be assessed by counting ^3H-activity.
# (§3) Assay solutions used: Wash buffer (HBSS), Assay buffer (HBSS+10 mM LiCl and 0,2% w/v ovalbumin), Lysis buffer (10 mM formic acid), and SPA YSI beads (12.5 mg/ml in H2O). The assay was performed the day after transfection. Briefly, labelling medium was aspirated, and plates were washed ×1 in wash buffer before adding 100 μl assay buffer, pre-incubated for 30 min followed by 120 min incubation with agonist, both at 37° C. After incubation, plates were immediately placed on ice and the incubation medium was aspirated and 40 μl of 10 mM formic acid per well was added. Plates were incubated for at least 30 min on ice. 60 μl (1 mg/well) SPA YSI beads/well was pipetted into a solid white 96 wells plate and 35 μl of the lysis solution was transferred to the plate before covering plates with seal cover and shaking for 10 min. (max speed). Centrifuge plates and leave for 8 hours at room temperature before counting the plates in a MicroBeta plate counter (Perkin Elmer).
# hNK2R = biological target: T2, hNK2R (Homo sapiens, UniProt P21452); details: COS-7 cells; for EC50: 0.2% ovalbumin buffer; for hNK2R, IP3 Efficacy: figure legends: percent of 10^-6 M NKA
# T2 construct: host or cells: COS-7
# T2 sequence (P21452 1-398): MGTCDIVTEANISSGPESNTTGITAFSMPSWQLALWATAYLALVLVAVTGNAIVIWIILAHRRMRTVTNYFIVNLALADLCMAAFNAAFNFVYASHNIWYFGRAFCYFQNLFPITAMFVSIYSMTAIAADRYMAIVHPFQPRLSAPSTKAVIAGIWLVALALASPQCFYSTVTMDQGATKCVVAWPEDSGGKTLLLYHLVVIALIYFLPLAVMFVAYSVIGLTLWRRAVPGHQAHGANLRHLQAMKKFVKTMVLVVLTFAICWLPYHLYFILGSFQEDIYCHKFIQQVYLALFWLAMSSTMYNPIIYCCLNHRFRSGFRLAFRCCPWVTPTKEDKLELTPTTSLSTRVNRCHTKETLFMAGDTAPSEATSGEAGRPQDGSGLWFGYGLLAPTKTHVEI
# Protocol: as §1, §2, §3
# hNK3R = biological target: T3, hNK3R (Homo sapiens, UniProt P29371); details: COS-7 cells; for hNK3, IP3 Efficacy: figure legends: percent of 10^-6 M NKA; for EC50: 0.2% ovalbumin buffer, read-out: hNK3, IP3 EC50
# T3 construct: host or cells: COS-7
# T3 sequence (P29371 1-465): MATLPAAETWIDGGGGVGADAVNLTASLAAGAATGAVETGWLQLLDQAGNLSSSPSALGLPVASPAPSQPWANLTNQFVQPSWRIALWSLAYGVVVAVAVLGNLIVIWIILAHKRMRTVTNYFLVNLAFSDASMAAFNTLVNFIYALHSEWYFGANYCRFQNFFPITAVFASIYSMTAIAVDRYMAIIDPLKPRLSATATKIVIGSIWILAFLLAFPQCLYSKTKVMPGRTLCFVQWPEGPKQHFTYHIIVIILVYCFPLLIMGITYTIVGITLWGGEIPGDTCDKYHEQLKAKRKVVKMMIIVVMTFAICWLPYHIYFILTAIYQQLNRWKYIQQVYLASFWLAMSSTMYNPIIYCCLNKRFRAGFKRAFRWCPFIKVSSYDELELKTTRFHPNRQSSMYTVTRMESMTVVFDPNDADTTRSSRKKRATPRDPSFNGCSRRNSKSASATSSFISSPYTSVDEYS
# Protocol: as §1, §2, §3
smiles,measurement,setting,value
"CCCC[C@H](NC(=O)[C@H](CC(C)C)N(C)C(=O)CNC(=O)[C@@H](NC(=O)[C@H](Cc1ccc(O)cc1)NC(=O)[C@H](CCCCN)NC(=O)[C@H](CC(=O)O)NC(=O)COCCOCCNC(=O)COCCOCCNC(=O)CC[C@H](NC(=O)CCCCCCCCCCCCC(=O)O)C(=O)O)C(C)C)C(N)=O [compound 368, *Asp;Lys;Tyr;Val;Gly;NmLeu;Nle;NH2] ({C14 diacid-γGlu-AEEA-AEEA}-DKYVG[NMeL][Nle]-NH2)","hNK1R, IP3 Efficacy",hNK1R,0%
same,EC50,hNK2R,19 nM
same,"hNK2R, IP3 Efficacy",hNK2R,70%
same,"hNK3, IP3 Efficacy",hNK3R,0%
"CCCC[C@H](NC(=O)[C@H](CC(C)C)NC(=O)[C@@H](CO)NC(=O)[C@@H](NC(=O)[C@H](Cc1ccccc1)NC(=O)[C@H](CCCCN)NC(=O)[C@H](CC(=O)O)NC(=O)COCCOCCNC(=O)COCCOCCNC(=O)CC[C@H](NC(=O)CCCCCCCCCCCCCCCCC(=O)O)C(=O)O)C(C)C)C(N)=O [compound 385, *Asp;Lys;Phe;Val;dSer;Leu;Nle;NH2] ({C18 diacid-γGlu-AEEA-AEEA}-DKFV[dS]L[Nle]-NH2)","hNK1R, IP3 Efficacy",hNK1R,0%
same,EC50,hNK2R,4.5 nM
same,"hNK2R, IP3 Efficacy",hNK2R,46%
same,"hNK3, IP3 Efficacy",hNK3R,0%
"CCCC[C@H](NC(=O)[C@H](CC(C)C)NC(=O)CNC(=O)[C@@H](NC(=O)[C@H](Cc1ccccc1)NC(=O)[C@H](CO)NC(=O)[C@H](CC(=O)O)NC(=O)[C@@H](NC(=O)[C@H](CCCCN)NC(=O)COCCOCCNC(=O)COCCOCCNC(=O)CC[C@H](NC(=O)CCCCCCCCCCCCCCCCC(=O)O)C(=O)O)[C@@H](C)O)C(C)C)C(N)=O [compound 308, *Lys;Thr;Asp;Ser;Phe;Val;Gly;Leu;Nle;NH2]",EC50,hNK1R,~164 nM
same,"hNK1R, IP3 Efficacy",hNK1R,60%
same,EC50,hNK2R,96 nM
same,"hNK2R, IP3 Efficacy",hNK2R,65%
same,EC50,hNK3R,1000 nM
same,"hNK3, IP3 Efficacy",hNK3R,93%
"CSCC[C@H](NC(=O)[C@H](CC(C)C)N(C)C(=O)CNC(=O)[C@@H](NC(=O)[C@H](Cc1ccccc1)NC(=O)[C@H](CCCCNC(=O)COCCOCCNC(=O)COCCOCCNC(=O)CC[C@H](NC(=O)CCCCCCCCCCCCCCCCC(=O)O)C(=O)O)NC(=O)[C@H](CC(=O)O)NC(C)=O)C(C)C)C(N)=O [compound 301, **Asp;Lys*;Phe;Val;Gly;NmLeu;Met;NH2]",EC50,hNK1R,~1500 nM
same,"hNK1R, IP3 Efficacy",hNK1R,64%
same,EC50,hNK2R,38 nM
same,"hNK2R, IP3 Efficacy",hNK2R,63%
same,EC50,hNK3R,160 nM
same,"hNK3, IP3 Efficacy",hNK3R,85%
"CCCC[C@H](NC(=O)[C@H](CC(C)C)N(C)C(=O)CNC(=O)[C@@H](NC(=O)[C@H](Cc1ccccc1)NC(=O)[C@H](CCCNC(=N)N)NC(=O)[C@H](CCC(=O)O)NC(=O)COCCOCCNC(=O)COCCOCCNC(=O)CC[C@H](NC(=O)CCCCCCCCCCCCCCCCC(=O)O)C(=O)O)C(C)C)C(N)=O [compound 337, *Glu;Arg;Phe;Val;Gly;NmLeu;Nle;NH2] ({C18 diacid-γGlu-AEEA-AEEA}-ERFVG[NMeL][Nle]-NH2)",EC50,hNK1R,23 nM
same,"hNK1R, IP3 Efficacy",hNK1R,70%
same,EC50,hNK2R,4 nM and 1.3 nM
same,"hNK2R, IP3 Efficacy",hNK2R,80%
same,EC50,hNK3R,43 nM
same,"hNK3, IP3 Efficacy",hNK3R,100%
"CCCC[C@H](NC(=O)[C@H](CC(C)C)N(C)C(=O)CNC(=O)[C@@H](NC(=O)[C@H](Cc1ccc(O)cc1)NC(=O)[C@H](CCCCN)NC(=O)[C@H](CC(=O)O)NC(=O)COCCOCCNC(=O)COCCOCCNC(=O)CC[C@H](NC(=O)CCCCCCCCCCCCCCCCCCC(=O)O)C(=O)O)C(C)C)C(N)=O [compound 380, *Asp;Lys;Tyr;Val;Gly;NmLeu;Nle;NH2] ({C20 diacid-γGlu-AEEA-AEEA}-DKYVG[NMeL][Nle]-NH2)",EC50,hNK1R,58 nM
same,"hNK1R, IP3 Efficacy",hNK1R,20%
same,EC50,hNK2R,1.5 nM
same,"hNK2R, IP3 Efficacy",hNK2R,90%
same,EC50,hNK3R,~160 nM
same,"hNK3, IP3 Efficacy",hNK3R,30%

# From patent US20230406883A1, “COMPOUNDS AND THEIR USE IN TREATMENT OF TACHYKININ RECEPTOR MEDIATED DISORDERS” (Embark Biotech ApS, priority 2020, published 2023)
